The values that follow come from patent publication US9573938B2 (priority 2012, dated 2017).

The target in data set [1] is T1, HIV-1 integrase (Human immunodeficiency virus type 1 group M subtype B, UniProt P12497). Nature of the data set: LEDGF independent integration (strand transfer) assay. Particulars: 500 nM integrase, 32P-labled recessed end 19-mer U5 DNA, 37° C. 1 hour. In kind it is biochemical. The protocol: (§1) The two metal binding motif of these compounds allows for potential cross reactivity with other drug targets with two metal containing active sites. Compounds were tested for LEDGF independent integration (strand transfer) and 3′ processing based on established protocols (Kessl et al.; J Biol Chem, 2012; 287:16801-16811).
(§2) The 3′-processing was assayed using blunt ended ^32P-labled 21-mer synthetic double stranded U5 DNA. The strand transfer assay used ^32P-labled recessed end 19-mer synthetic double stranded U5 DNA. 500 nM integrase was pre-incubated with compound for 30 minutes on ice in 50 mM MOPS (pH 7.2) buffer containing 2 mM β-mercaptoethanol, 50 mM NaCl and 10 mM MgCl2. 50 nM DNA substrate was added to the reaction and incubated at 37° C. for 1 hour when the reactions were stopped with 50 mM EDTA. The reaction products are subjected to denaturing polyacrylamide gel electrophoresis and visualized using a Storm 860 Phosphorimager (Amersham Biosciencs). The ICs50s of representative compounds of formula (I) as detected with a LEDGF independent integration assay or a 3′-processing assay are shown in the following table.

Data set [2] concerns the target T1, HIV-1 integrase. The data set is described as follows: 3′-processing assay. In kind it is biochemical. Particulars: 500 nM integrase, blunt ended 32P-labled 21-mer U5 DNA, 37° C. 1 hour; read-out: IC50 (μM) 3′-Process. The protocol:
as §1, §2

Data set [3] deals with 2009 H1N1 influenza A endonuclease (PAN domain) (Influenza A virus, UniProt C3W5S0). The data set is described as follows: biochemical. More on the design: species or system Influenza A (pandemic 2009 H1N1). Particulars: IC50 (uM) using either 500 nM or 50 nM enzyme, fluorescence change over time at 37 degrees Celsius.

Where “and” joins values, the source holds several entries; their conditions need not be identical. Identical values can stand only once.

One may read the IC50 as the concentration that inhibits the measured activity by half. For `O=C(O)c1cccc(-c2c[nH]c(=O)c(O)c2)c1` [drawing 240], the IC50 came out at 20.5 ± 1.3 µM on HIV-1 integrase [1] and 22.2 ± 2.5 µM on HIV-1 integrase [2].
In the same order, the values of `O=C(O)c1ccc(-c2c[nH]c(=O)c(O)c2)cc1` [drawing 242] are 50.7 ± 2.9 µM and 7.4 ± 1.6 µM.
In the same order, the values of `O=c1[nH]c(-c2ccc(-c3nnn[nH]3)cc2)c(-c2ccc(F)cc2)cc1O` [drawing 238] are 11.7 ± 1.5 µM and 20.8 ± 5.8 µM.
Consider `O=c1[nH]c(-c2ccc(-c3nnn[nH]3)cc2)ccc1O` [drawing 241], for which the IC50 at HIV-1 integrase [1] came out at 23.7 ± 2.7 µM; at HIV-1 integrase [2], 12.6 ± 3.2 µM.
For `O=c1[nH]cc(-c2ccc(F)cc2)cc1O` [drawing 239], the values for the half-inhibitory concentration (IC50) at HIV-1 integrase [1] and at HIV-1 integrase [2] were 15.7 ± 0.9 µM and 11.6 ± 1.6 µM, respectively.
As usually defined, the melting point is the temperature of the solid-liquid transition. The molecule `O=c1[nH]c(-c2ccccc2)c(-c2ccccc2)cc1O` [5,6-bis(phenyl)-3-hydroxypyridin-2(1H)-one] came in with a melting point of 249 to 255 °C. Further, the half-maximal inhibitory concentration (IC50) in data set [3] was 0.12 µM and 0.047 µM.
As to `O=c1[nH]c(-c2ccc(O)c(O)c2)ccc1O` [drawing 237], the IC50 turned out to be 6 ± 0.8 µM at HIV-1 integrase [1] and 8.2 ± 2.5 µM at HIV-1 integrase [2].
